Data reported in patent US10059695B2, “Cot modulators and methods of use thereof” (Gilead Sciences, Inc., priority 2016, dated 2018).
pEC50, pIC50: −log10 of the molar value.

Tests used:
[1] = target: Human Cot (Homo sapiens (Human), UniProt P41279); experiment: High Throughput Cot Biochemical Assay (KinEASE TR-FRET); details: recombinant human Cot catalytic domain, 400 μM ATP
Method: Example 24: High Throughput Cot Biochemical Assay
Human Cot enzyme activity was measured using KinEASE (Cisbio), a time-resolved fluorescence resonance energy transfer (TR-FRET) immunoassay. In this assay, Cot-catalyzes the phosporylation of a XL665-labeled peptide substrate. Europium conjugated […] specific antibody binds the resulting phosphorylated peptide. Formation of phosphorylated peptide is quantified by TR-FRET with Europium as the donor and XL665 the acceptor in a 2-step endpoint assay. Purified recombinant human Cot catalytic domain (30-397 amino acids) was purchased from Carna Biosciences. In brief, test compounds serially diluted in DMSO were delivered into Proxy white, low volume, 384 well plates using the Echo 550 acoustic liquid dispenser (Labcyte®). Cot enzyme and substrates were dispensed into assay plates using a Multi-Flo (Bio-Tek Instruments). The standard 5 μL reaction mixture contained 400 μM ATP, 1 μM STK3 peptide, 5 nM of Cot in reaction buffer (10 mM MOPS, pH 7.0, 0.02% NaN3, 0.5 mg/mL BSA, 10 mM MgOAc, 1 mM DTT, 0.025% NP-40, 1.5% glycerol) and 0.1% DMSO. After 2.5 hrs of incubation at room temperature, 5 μL of Stop and Detect Solution (1:200 Europium Cryptate labeled anti-phosphorylated peptide antibody solution and 125 nM strepavidin-XL665 Tracer in a 50 mM Hepes pH 7.0 detection buffer containing sufficient EDTA) was added. The plate was then further incubated for 120 minutes at room temperature and read using an Envision 2103 Multilabeled reader (PerkinElmer) with excitation/emission/FRET emission at 340 nm/615 nm/665 nm, respectively. Fluorescence intensities at 615 nm and 665 nm emission wavelengths were expressed as a ratio (665 nm/615 nm).

[2] = test system: TNFα; experiment: Cot Monocyte TNFα Cell Based Assay; details: LPS-stimulated cryopreserved human monocytes, TNFα by TR-FRET
Method: Example 23: Cot Monocyte TNFα Cell Based Assay
Cryopreserved human monocytes (Stem Cell Technologies) were thawed, diluted in RPMI with Glutamax (10 mM HEPES, 1× Pen-Strep, 55 μM β-mercaptoethanol, 1 mM Sodium pyruvate) media containing 10% FBS to 0.125×10^6 cells/ml and recovered at 37° C. for 2 hours. The cell suspension was then plated at a density of 5,000 cells/well onto black 384 well Greiner clear bottom plates. Plates were pre-spotted with test compounds and serially diluted in DMSO where 200 nL/well were delivered using the Echo 550 acoustic liquid dispenser (Labcyte®) for a final DMSO concentration of 0.5%. Plated cells were treated with compound for 1 hour at 37° C. Cells were then stimulated with 50 μg/ml of LPS (Sigma) excluding outside columns of plate used for unstimulated cell control wells. Cells were incubated for an additional 4 hours at 37° C. Cells were then spun out of the media and 5 μl of sample were taken and analyzed for total TNFα content using the TR-FRET Human TNFα detection system (CisBio). This system utilizes two labeled antibodies (cryptate and XL665) that bind to two different epitopes of the TNFα molecule and produce FRET signal proportional to the concentration of TNFα in the sample. Detection antibodies are mixed 50:50 and 5 μL were dispensed into each well. Plates were covered with clear seals and incubated at room temp overnight. The following morning plates were read using an Envision 2103 Multilabeled reader (PerkinElmer) with excitation/emission/FRET emission at 340 nm/615 nm/665 nm, respectively. Fluorescence intensities at 615 nm and 665 nm emission wavelengths were expressed as a ratio (665 nm/615 nm). Percent of control was calculated as follows: % Control=100×(RatioSample−Ratio0% stimulation)/(Ratio100% Stimulation−Ratio0% Stimulation) where unstimulated cells (0% stimulation) were the negative control and stimulated cells (100% stimulation) were used as the positive control.

Human Cot, sequence (P41279 30-397): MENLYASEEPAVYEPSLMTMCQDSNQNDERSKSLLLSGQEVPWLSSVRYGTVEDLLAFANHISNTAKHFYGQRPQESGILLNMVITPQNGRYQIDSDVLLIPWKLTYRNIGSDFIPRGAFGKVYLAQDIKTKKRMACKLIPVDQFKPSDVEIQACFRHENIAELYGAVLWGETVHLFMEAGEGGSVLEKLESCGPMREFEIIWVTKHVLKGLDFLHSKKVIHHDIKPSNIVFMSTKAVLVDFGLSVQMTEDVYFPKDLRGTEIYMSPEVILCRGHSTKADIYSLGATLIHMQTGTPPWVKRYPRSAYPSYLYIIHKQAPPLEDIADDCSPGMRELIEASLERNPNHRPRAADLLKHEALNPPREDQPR

SMILES	pIC50 [1]	pEC50 [2]
[2H][C@](Nc1cc(C#N)c2ncnc(NCC(C)(C)C)c2c1)(c1ccc(F)cc1)c1cn(C2CC2)nn1 [I-14, (S)-6-(((1-cyclopropyl-1H-1,2,3-triazol-4-yl)(4-fluorophenyl)methyl-d)amino)-4-(neopentylamino) quinazoline-8-carbonitrile]	8.68	7.38
[2H][C@@](Nc1cc(C#N)c2ncnc(NCC(C)(C)C)c2c1)(c1cn(C2(C#N)CC2)nn1)c1ccccc1Cl [I-20, (S)-6-(((2-chlorophenyl)(1-(1-cyanocyclopropyl)-1H-1,2,3-triazol-4-yl)methyl-d)amino)-4-(neopentylamino) quinazoline-8-carbonitrile]	8.48	7.46
[2H][C@@](Nc1cc(C#N)c2ncnc(NCC(C)(C)C)c2c1)(c1cn(C2CC2)nn1)c1ccccc1Cl [I-19, (S)-6-(((2-chlorophenyl)(1-cyclopropyl-1H-1,2,3-triazol-4-yl)methyl-d)amino)-4-(neopentylamino) quinazoline-8-carbonitrile]	8.62	7.70
Cn1ccc2c([C@H](Nc3cc(C#N)c4ncnc(NCC(C)(C)C)c4c3)c3cn(C4(C(F)F)CC4)nn3)cccc2c1=O [I-24, (S)-6-(((1-(1-(difluoromethyl)cyclopropyl)-1H-1,2,3-triazol-4-yl)(2-methyl-1-oxo-1,2-dihydroisoquinolin-5-yl)methyl)amino)-4-(neopentylamino) quinazoline-8-carbonitrile]	8.92	7.95
[2H][C@](c1ccc(F)cc1)(c1cn(C2CC2)nn1)N(CC)c1ccc2ncnc(NCC(C)(C)C)c2c1 [I-6, (S)-N6-((1-cyclopropyl-1H-1,2,3-triazol-4-yl)(4-fluorophenyl)methyl-d)-N6-ethyl-N4-neopentylquinazoline-4,6-diamine]	6.56	5.37
[2H][C@](Nc1cc(Br)c2ncnc(NCC(C)(C)C)c2c1)(c1ccc(F)cc1)c1cn(C2CC2)nn1 [I-15, (S)-8-bromo-N6-((1-cyclopropyl-1H-1,2,3-triazol-4-yl)(4-fluorophenyl)methyl-d)-N4-neopentylquinazoline-4,6-diamine]	8.59	7.09

Second part, the compound after the results:

pIC50 [1]	pEC50 [2]	SMILES
6.50	5.91	Fc1ccc(Nc2ncnc3ccc(N[C@@H](c4ccc(Cl)cc4)c4cn(C5CCN(C6COC6)CC5)nn4)cc23)cc1Cl [II-8, (S)-N4-(3-chloro-4-fluorophenyl)-N6-((4-chlorophenyl)(1-(1-(oxetan-3-yl)piperidin-4-yl)-1H-1,2,3-triazol-4-yl)methyl) quinazoline-4,6-diamine]
7.77	6.28	CCN1CCC(n2cc([C@@H](Nc3cc(Cl)c4ncnc(Nc5ccc(F)c(Cl)c5)c4c3)c3ccc(Cl)cc3)nn2)CC1 [II-10, (S)-8-chloro-N^4-(3-chloro-4-fluorophenyl)-N^6-((4-chlorophenyl)(1-(1-ethylpiperidin-4-yl)-1H-1,2,3-triazol-4-yl)methyl) quinazoline-4,6-diamine]
